Assay results as given in US10918648B2, “Estrogen receptor modulator combinations” (The Regents of the University of California, priority 2016, dated 2021).
Like-named read-outs stand apart in the source and are kept apart here.

How the values were obtained:
Format in all cases: cell-based, human
[1] = test system: MCF-7 breast cancer cells; assay: MCF-7 breast cancer cell proliferation (BrdU ELISA) in presence of estradiol-17β; settings: for inhibition of MCF-7 cell proliferation/survival: 1 μM or 50 μM antiestrogen in the presence of 1 nM estradiol, 1% DCC-FBS, FIG. 2A; for IC50: Homo sapiens, MCF7, 72 hrs in the presence of 1 nM estradiol-17β, BrdU ELISA, read-out: IC50 for inhibition of cell proliferation, MCF-7
Description: In experiments to assess potential proliferative effects of novel estrogen receptor ligands, human breast cancer cells were grown in phenol red-free, estrogen-free media with 1% dextran-coated charcoal-treated (DCC)-fetal bovine serum (FBS) for 48 hrs (15,44), then treated with either 1 μM or 50 μM doses of estrogen receptor antagonists in the presence of 1 nM estradiol-17β. Cell counts and viability tests (Trypan blue) were done every 24 hr for 3 days. After 72 hr, proliferation was assessed using the BrdU Cell proliferation ELISA (Roche). Cell numbers were also assessed initially by cell counts to confirm ELISA data. Each antiestrogen was tested at least in three different experiments.
In order to assess the antitumor action of novel estrogen receptor antagonists, we cultured human MCF-7 breast cancer cells with known expression of ERα. Cells were grown in 1% DCC-FBS for 48 hr and then treated with vehicle control or either 1 μM or 50 μM concentrations of antiestrogens JD 101-160 or the pure antiestrogen fulvestrant (FAS), all in the presence of 1 nM estradiol-170. […] Shown in FIG. 2A are results from MCF-7 cells grown in 1% DCC-FBS for 48 hr and then treated with vehicle control, 1 nM estradiol-170 and either 1 μM or 50 μM concentrations of antiestrogens JD 101-160 or the known pure antiestrogen fulvestrant (FAS) in the presence of 1 nM estradiol-170. Cell proliferation is expressed as percentage of that determined in the 1 nM estradiol-170-treated control group.
(§1) Cell proliferation assays: breast and lung tumor cells (between […]) were plated in 96 well plates using their respective medium with 10% FBS. For experiments using estradiol-17β, cells were rinsed with PBS and incubated with phenol redfree medium with 1% DCC-FBS for 48 hours as described before (24,25). Cells were then treated with different concentrations of SERDs ranging between 0.0001-100 μM. […] Cell counts and viability tests (Trypan blue) were done every 24 hr for 3 days. After 72 hr, proliferation was assessed with the MTS Assay CELLTITER 96® Aqueous Cell Proliferation Assay (Promega) or the Cell Proliferation ELISA, BrdU colorimetric assay (Roche). For the MTS, the absorbance of the formazan product was measured at 490 nanometer using the iMARK microplate reader from BIORAD. The BrdU ELISA assay is based on detection of BrdU incorporated into the genomic DNA of proliferating cells and an anti-BrdU antibody, the reaction product was quantified by measuring the absorbance at 370 nanometers using iMARK microplate reader from BIORAD. Cell numbers were also assessed initially by cell counts to confirm MTS/BrdU data. Experiments were done at least three times to confirm data.

A549 NSCLC cells = assay: NSCLC cell proliferation in vitro (MTS assay); settings: 72 hours; for IC50: MTS assay
H2122 NSCLC cells = assay: NSCLC cell proliferation in vitro (MTS assay); settings: 72 hours
Description: (§2) Cell culture: Human breast and non-small cell lung cancer cells (MCF7, ZR75-1, MDAMB231, A549, H23, H1975, […]) were from ATCC. MCF7-HER2 were a kind gift of Dr. Dennis Slamon (23). Cell lines were routinely maintained in RPMI 1640 or DMEM medium with 10% fetal bovine serum (FBS) (Sigma-Aldrich) and 1% Antibiotic-Antimycotic solution 100× (Mediatech, Herndon, Va.). When indicated, for estrogen-free conditions, media was changed 48 h before experiments to phenol-red free RPMI 1640/DMEM with 1% dextran-coated, charcoal-treated (DCC)-FBS (24,25). Otherwise experiments were performed in phenol-red free RPMI 1640/DMEM medium with 5% DCC-FBS.
as §1

H1975 NSCLC cells = assay: NSCLC cell proliferation in vitro (MTS assay); settings: 72 hours
Description: as §2, §1

[2] = Homo sapiens, A549, SERD alone, estrogen-depleted phenol red-free medium with 5% DCC-FBS, read-out: IC50 for inhibition of NSCLC cell proliferation, A549
[3] = in the presence of 1 μM abemaciclib, 5% DCC-FBS, read-out: IC50 of SERD for inhibition of NSCLC cell proliferation, A549
[4] = in the presence of 1 μM palbociclib, 5% DCC-FBS, read-out: IC50 of SERD for inhibition of NSCLC cell proliferation, A549
[5] = Homo sapiens, NCI-H2122, SERD alone, estrogen-depleted phenol red-free medium with 5% DCC-FBS, read-out: IC50 for inhibition of NSCLC cell proliferation, H2122
[6] = in the presence of 1 μM abemaciclib, 5% DCC-FBS, read-out: IC50 of SERD for inhibition of NSCLC cell proliferation, H2122
[7] = in the presence of 1 μM palbociclib, 5% DCC-FBS, read-out: IC50 of SERD for inhibition of NSCLC cell proliferation, H2122
[8] = Homo sapiens, NCI-H1975, SERD alone, estrogen-depleted phenol red-free medium with 5% DCC-FBS, read-out: IC50 for inhibition of NSCLC cell proliferation, H1975
[9] = in the presence of 1 μM palbociclib, 5% DCC-FBS, read-out: IC50 of SERD for inhibition of NSCLC cell proliferation, H1975

Row | Structure (SMILES) | inhibition of MCF-7 cell proliferation/survival [1] | IC50 [1] | antiproliferative effects compared with fulvestrant (A549 NSCLC cells; A549, RPMI 1640 with 10% FBS, 1 μM or 10 μM, FIG. 8A) | IC50 (A549 NSCLC cells; [2]) | IC50 (A549 NSCLC cells; [3]) | IC50 (A549 NSCLC cells; [4]) | IC50 (H2122 NSCLC cells; [5]) | IC50 (H2122 NSCLC cells; [6]) | IC50 (H2122 NSCLC cells; [7]) | IC50 (H1975 NSCLC cells; [8]) | IC50 (H1975 NSCLC cells; [9]) | IC50 (H1975 NSCLC cells; in the presence of 1 μM abemaciclib, 5% DCC-FBS, read-out: IC50 of SERD for inhibition of NSCLC cell proliferation, H1975)
1 | C[C@]12C[C@H](Oc3ccc(NC(=O)CCCCN4CCCCC4)c(F)c3)[C@@H]3c4ccc(O)cc4CC[C@H]3[C@@H]1CC[C@@H]2O [JD140, N-(4-(((8S,9S,11S,13S,14S,17S)-3,17-Dihydroxy-13-methyl-7,8,9,11,12,13,14,15,16,17-deca-hydro-6H-cyclopenta[a]phenanthren-11-yl)oxy)-2-fluorophenyl)-5-(piperidin-1-yl)pentan-amide] | significant inhibition | 320 nM | significant antiproliferative effects | 500 nM | 640 nM | 1220 nM | 1140 nM | 30 nM | 1110 nM | 1860 nM | 17100 nM | 
2 | C[C@]12C[C@H](Oc3ccc(N)cc3)[C@@H]3c4ccc(O)cc4CC[C@H]3[C@@H]1CC[C@@H]2O [JD105, (8S,9S,11S,13S,14S,17S)-11-(4-aminophenoxy)-13-methyl-7,8,9,11,12,13,14,15,16,17-decahydro-6H-cyclopenta[a]phenanthrene-3,17-diol] |  | 2140 nM |  |  | 410 nM | 2570 nM | 3830 nM | 1480 nM | 4200 nM | 4500 nM | 4780 nM | 1060 nM
3 | C[C@]12C[C@H](Oc3ccc(N)c(C(F)(F)F)c3)[C@@H]3c4ccc(O)cc4CC[C@H]3[C@@H]1CC[C@@H]2O [JD128, (8S,9S,11S,13S,14S,17S)-11-(4-Amino-3-(trifluoromethyl)phenoxy)-13-methyl-7,8,9,11,12,13,14,15,16,17-decahydro-6H-cyclopenta[a]phenanthrene-3,17-diol] | significant inhibition | 110 nM |  | 1090 nM | 660 nM | 1340 nM | 1310 nM | 230 nM | 960 nM |  | 12400 nM | 
